{"source": "patent US20140370084A1", "about": "“ESTRADIOL FORMULATIONS AND THERAPIES” (TherapeuticsMD, Inc., priority 2013, published 2014)", "test": "Particle size analysis of micronized progesterone API (Beckman Device, ULM)", "assay_type": "physicochemical", "settings": "sample API, Fraunhofer optical model", "from_the_text": "Particle size may be determined in any suitable manner. For example, a Beckman Coulter LS 13 320 Laser Diffraction Particle Size Analyzer (the “Beckman Device”) may be used to determine particle size. As described above, particle size may be represented by various metrics, for example, through an X50 particle size, and/or X90 particle size, or similar descriptions of particle size.\nThe Beckman Device may be used with various modules for introducing a sample for analysis. The Beckman Device may be used with the LS 13 320 Universal Liquid Module (“ULM”). The ULM is capable of suspending samples in the size range of 0.017 μm to 2000 μm. The ULM is a liquid based module that allows for delivery of the sample to the sensing zone. The ULM recirculates the sample through the Beckman Device. The ULM comprises two hoses, one for fluid delivery and another for waste. The total volume used may be 125 mL or less. A sample mass of from about 1 mg to about 10 g may be used. The ULM may interact with the Beckman Device via pins that fit into slots on the ULM. The ULM may use a variety of suspension fluids, for example, water, butonol, ethanol, chloroform, heptanes, toluene, propanol, COULTER Type 1B Dispersant (“Coulter 1B”), and a variety of other suspension fluids. Surfactants may also be used, though pump speed should be adjusted to prevent excessive bubbling. […]"}
{"compound": "CC(=O)[C@H]1CC[C@H]2[C@@H]3CCC4=CC(=O)CC[C@]4(C)[C@H]3CC[C@]12C", "note": "[Progesterone, progesterone]", "values": [{"measurement": "X25", "result": 1.590, "unit": "μm"}, {"measurement": "X75", "result": 7.442, "unit": "μm"}]}
